Data from PMC8467576, “Novel Ubiquitin Specific Protease-13 Inhibitors Alleviate Neurodegenerative Pathology” (Metabolites, 2021).
Values joined by “and” are separate entries in the source; they are usually repeats but may differ in a detail not shown here. Equal values may be shown once. Read-outs that look alike come from different tables or passages of the source.

How the values were obtained:
[1] = Pharmacokinetics in wild type C57BL6 mice (brain and serum, UHPLC-MS/MS); assay type: in vivo; conditions: C57BL/6, mouse, ip, 10 mg/kg I.P.; for AUC: over 12 h; for half-life: read-out: T1/2 (elimination) (converted)
Protocol: Wild type C57BL6 mice were injected with 10 mg/kg BK50118-C versus DMSO, and the brain and serum were isolated at 0, 1, 2, 4, 6, 8 and 12 h; extracted in water and examined by mass spectrometry. […] Elimination (T1/2) was 2.32 h for brain and 1.84 h in serum.
C57BL/6 mice received a single intraperitoneal dose (10 mg/kg) of BK50118-C. Brain and serum samples were collected at 1, 2, 3, 4, 8 and 12 h (n = 3 per time point). Animals injected with vehicle (DMSO) were used for background subtraction. Stock solution of the drug (1 mg/mL) and internal standards were prepared in methanol. Intermediate solutions used for the calibrators and control samples were serial-diluted in methanol/water (1:1). Preparation of the calibration curve standards and quality samples (QC) were performed by mixing the intermediate dilutions in blank samples (brain homogenates, serum). The internal standard working solution contained deuterium labeled BK50118-C-d7 at the concentration of 5 ng/mL diluted in acetonitrile (ACN)/ethyl acetate (4:1). Serum and brain samples were stored at −80 °C and then thawed to room temperature prior to preparation. The brains were homogenized in MilliQ water (1 mg brain: 10 µL water). Proteins were precipitated in both brain and serum samples by mixing 25 µL aqueous sample with 75 µL internal standard working solution. The mixture was centrifuged at 12,300× g for 5 min. Thereafter, 75 µL of each supernatant and 25 µL of MilliQ water were pipetted into a 96-well PCR plate (Fisher Scientific, Dawsonville, GA, USA).
The concentrations of BK50118-C in the brain tissue and serum samples were measured by ultrahigh performance liquid chromatography tandem mass spectrometry (UHPLC-MS/MS). Briefly, the UHPLC-MS/MS system included an Elute HTG binary gradient UHPLC pump, an Elute column oven and an EVOQ Elite triple quadrupole mass spectrometer (all from Bruker Daltonik GmbH, Bremen, Germany) equipped with an electrospray ionization (ESI) source operating in a positive mode. The samples were injected by use of a PAL auto sampler (CTC Analytics, Zwingen, Switzerland) equipped with a 10-µL sample loop; the samples were kept in a PAL stack cooler for 6 microtiter plates and operating at +6 °C. The system was controlled by a Compass 2.0/HyStar 4.0 software (Bruker); the compound screening and quantitation was performed by a TASQ 2.2 data acquisition and processing software (Bruker). The mass spectrometer was supplied by nitrogen and air generated by a Genius 3045 nitrogen/air generator (Peak Scientific Instruments, Inchinnan, Scotland, UK). The ESI parameters were as follows: probe gas flow 50, nebulizer gas flow 60, probe temperature +400 °C, cone gas flow 20, cone temperature +350 °C, CID gas Ar 1.5 mTorr. The mass spectra were scanned in the MRM mode to find the optimal collision energies for the test compounds and their respective precursor ions.
For chromatographic separation, an YMC-Ultra HT Hydrosphere C18 column (2.0 × 100 mm, 2 µm particle size) and an YMC-Hydrosphere 2.1 × 5 mm guard column (YMC Co. Ltd., Kyoto, Japan) were used. The mobile phase A was 10 mM ammonium formate, pH 4.3, in water; the mobile phase B was 10 mM ammonium formate, pH 4.3, in 10% water, 50% acetonitrile and 40% isopropyl alcohol. The mobile phase gradient was as follows (min—A/B%): 0 min—50/50, 0.5 min—50/50, 2.0 min—20/80, 3 min—20/80, 3.1 min—50/50, 4.5 min—50/50. The flow rate was 450 µL/min, and the column temperature was set at 50 °C. The sample injection volume was 10 µL.

human alpha-synuclein = test: Alpha-synuclein levels in TgA53T mice (WB, ELISA, DAB staining); assay type: in vivo, mouse; conditions: vs DMSO; for reduction of number of human alpha-synuclein positive neurons: 40 mg/Kg I.P. daily for 7 days
Protocol: Male and female TgA53T mice (15 months old) were treated daily with intraperitoneal injection of DMSO versus 10 mg/kg or 40 mg/kg BK50118-C for 7 days. […] ELISA measurement of alpha-synuclein in the same extracts (Figure 4C) confirmed that human alpha-synuclein was reduced by about 30% (10 mg/kg) and 56% (40 mg/kg), respectively (Figure 4C).
BK50118-C is one of novel small molecule inhibitors of USP13 synthesized in our laboratory. For BK50118-C treatment, approximately 15 months old (±1 month) male and female TgA53T mice were treated with intraperitoneal injection of vehicle (DMSO) or BK50118-C at the daily dosage of 10 mg/Kg or 40 mg/Kg for 7 days. Animals were age and sex-matched in their respective treatment cohorts. All animals were sacrificed after treatment. All experiments were conducted in full compliance with the recommendations of Georgetown University Animal Care and Use Committee. These experiments were conducted under animal protocol No. 2016-1194 titled, Misfolded Protein Clearance in Neurodegeneration, which was approved by the Georgetown University IACUC. Protocol Information: IACUC Protocol Number: 2016-1194. Protocol Approval Date: 14 September 2020 Expiration Date: 14 September 2023.
To extract the soluble proteins from mouse midbrain lysates, tissues were isolated and homogenized in 1x STEN buffer (50 mM Tris (pH 7.6), 150 mM NaCl, 2 mM EDTA, 0.2% NP-40, 0.2% BSA, 20 mMPMSF and protease cocktail inhibitor), centrifuged at 10,000× g for 20 min at 4 °C, and the supernatant containing the soluble protein fraction was collected. Extracts were analyzed by Western blot (WB) on 4–12% SDS NuPAGE Bis-Tris gel (Invitrogen, NP0301BOX). Beta-actin (β-actin) was probed (1:3000) with monoclonal antibody (Emdmillipore, MAB1501R, Burlington, MA, USA). Human alpha-synuclein was probed (1:2000) with monoclonal antibody (Thermo Fisher, AHB0261, Rockford, IL, USA). USP13 was probed (1:1000) with polyclonal antibody (ThermoFisher, PA5-12014, Rockford, IL, USA). Ubiquitin was probed (1:5000) with polyclonal antibody (Thermo Fisher, PA3-16717, Rockford, IL, USA). WBs were quantified by densitometry using Quantity One 4.6.3 software (Bio Rad, Hercules, CA, USA) and Image J.
The ELISA for USP13 (MyBioSource, Cat # MBS9335287, San Diego, CA, USA), Human alpha-synuclein (Biolegend, Cat # 844101, San Diego, CA, USA) and specific p-Tau ser396 (Invitrogen, KHB7031, Waltham, MA, USA) were performed on cell or brain tissue extracts as described above according to manufacturers’ protocol.
DAB staining was performed for alpha-synuclein (Thermo Fisher, AHB0261, Rockford, IL, USA) on the 20 µm thick mouse brain sections, and stereological counting of alpha-synuclein+ neurons counterstained with Nissl was conducted.

With Fc1ccc2nccc(OCc3ccccc3)c2c1 [BK50118-C, 4-benzyloxy-6-fluoroquinoline] the Kp ([1]; brain and serum, read-out: Ratio of Serum/Brain) was 0.28, the Cmax ([1]; brain) was 81.5 nM and 20.6 ng/mL and the Tmax ([1]; brain) was 1 h. For the same compound, the AUC ([1]; brain) was 0.164 ± 0.0395 µM·h, the half-life ([1]; brain) was 2.32 h and the Cmax ([1]; serum) was 89.7 ng/mL and 355 nM. It also gave a Tmax ([1]; serum) of 1 h, an AUC ([1]; serum) of 0.599 ± 0.143 µM·h and a half-life ([1]; serum) of 1.84 h. The “reduction of human alpha-synuclein in midbrain extracts (ELISA)” value (human alpha-synuclein; 10 mg/kg I.P. daily for 7 days) was “about 30%”, the “human alpha-synuclein in midbrain lysates (WB)” value (human alpha-synuclein; 10 mg/kg or 40 mg/kg I.P. daily for 7 days) was “significantly reduced” and the “reduction of human alpha-synuclein in midbrain extracts (ELISA)” value (human alpha-synuclein; 40 mg/kg I.P. daily for 7 days) was ~56%. For the same compound, the “reduction of number of human alpha-synuclein positive neurons” value (human alpha-synuclein; cortex) was 42% and the “reduction of number of human alpha-synuclein positive neurons” value (human alpha-synuclein; striatum) was 40%.
